Data published in patent US12257251B2, “Use of FAK inhibitor in preparation of drug for treating tumors having NRAS mutation” (INXMED (NANJING) CO., LTD., priority 2019, dated 2025).

What was measured:
[1] = Body weight change (tolerability) in the KYSE-270 xenograft study; assay type: in vivo, mouse; conditions: for Change in median weight: BI853520 50 mg/Kg qd, day 13 versus day 1
Procedure: (§1) 1.7. Monitoring tumor growth and side effects: Tumor diameters were measured with calipers three times a week. The volume [mm^3] of each tumor was calculated according to the equation “tumor volume=length×diameter^2×π/6”. To monitor the side effects of the treatment, the mice were checked daily for abnormalities and their body weights were measured three times a week. For ethical reasons, animals with tumors larger than 1.5 cm in diameter, ulcerated tumors, or 20% body weight loss were euthanized.
(§2) The wilcoxon test was used for comparison. For body weight, the percent change relative to initial body weight on day 1 was used as the target variable for statistical analysis. The number of animals, and the median, minimum and maximum weight changes in each group were calculated.
(§3) One-sided test to compare all treatment groups with control group was performed for observing: • reduction in tumor volume (inhibition of tumor growth, efficacy parameter) and • reduction in weight changes (weight loss, tolerance parameters).
Within each subtopic, p-values for the efficacy parameter were compared and adjusted for multiple times according to Bonferroni-Holm. The p-value for the tolerance parameter was kept constant so as not to overlook possible side effects. Significance level was fixed at α=5%. A p-value (adjusted) of less than 0.05 was considered to show a statistically significant difference between groups, and 0.05≤p-value<0.10 was considered as an indicative difference. Statistical evaluations were performed using the SAS software package version 9.4 (SAS Institute Inc., Cary NC, USA).

[2] = test system: 37 different tumors (human tumor CDX); conditions: across CDX models of 37 different tumors; cited from earlier work
[3] = test system: human esophageal cancer cell line KYSE-270; assay: Subcutaneous xenograft of human esophageal cancer cell line KYSE-270 in NMRI nude mice: tumor growth; assay type: in vivo, mouse; conditions: for Tumor shrinkage [x/y]: BI853520 50 mg/Kg qd
Procedure: 1.1. Model: Subcutaneous xenograft of human esophageal cancer cell line KYSE-270 in NMRI nude mice.
1.3. Cells: KYSE-270 is an esophageal cancer cell line (Public Health England, catalog number: 94072021). Cells were cultured in T175 tissue culture flasks containing 5% CO2 at 37° C. The medium was RPMI 1640+HAM F12 (1:1) supplemented with 2% FCS and 2 mM Glutamax. Passage was performed three times a week at a ratio of 1:2.
1.4. Mice: Mice were 8 to 10 week old female mice (BomTac: NMRI-Foxn1^nu) purchased from Taconic®, Denmark. Upon arrival in the animal room, the mice were allowed to acclimate for at least 5 days before being used for assay. The animals were housed under standard conditions (temperature: 21.5±1.5° C., humidity: 55+10%), 7 to 10 mice for each group. A standard diet and autoclaved tap water were provided for ad libitum feeding. A subcutaneous microchip implanted under isoflurane anesthesia was used to identify each mouse.
1.5. Random establishment of tumors: To establish subcutaneous tumors, KYSE-270 cells were harvested by centrifugation, washed and resuspended in PBS+5% FCS at a concentration of 5×10^7 cells/ml. Then 100 l of cell suspension containing 5×10^6 cells was injected subcutaneously into the right flank of mice (1 site per mouse). When tumors were well established and reached a volume of 94 to 252 mm^3, mice were randomly assigned to the treatment group and the control group (13 days after cell injection).
1.6. Administration: BI 853520 was suspended in 0.5% hydroxyethyl cellulose, which was administered intragastrically through gavage needle every day, and the dosage was 10 mL/Kg body weight. Paclitaxel was dissolved in saline (0.9% NaCl), which was administered intravenously in a volume of 10 ml/kg body weight. The suspension of BI853520 could be used for up to 7 days. Paclitaxel solution was stored at 6° C. and used for up to 14 days.
as §1
Statistical assessment of tumor volume and body weight on day 13 was performed. Animal number 1 (control group) was excluded from the statistical evaluation because of weight loss and had to be euthanized early (day 9). Measured tumor volume was used as the target variable in the statistical analysis. The number of animals and the median, minimum and maximum tumor volumes in each group were calculated. For a quick overview of possible treatment effects, the median tumor volume for each treatment group T and the median tumor volume for the control group C were used to calculate TGI: TGI=100×[(Cd−C1)−(Td−T1)]/(Cd−C1) • wherein, C1, T1=median tumor volume in control and treatment groups at the start of the assay (day 1). • Cd, Td=median tumor volume in control and treatment groups at the end of the assay (day 13).
as §2, §3
Within each subtopic, p-values for the efficacy parameter were compared and adjusted for multiple times according to Bonferroni-Holm. The p-value for the tolerance parameter was kept constant so as not to overlook possible side effects. […]

For COc1cc(C(=O)NC2CCN(C)CC2)c(F)cc1Nc1ncc(C(F)(F)F)c(Oc2cccc3c2C(=O)N(C)C3)n1 [BI853520], the “Change in median weight” value ([1]; 50 mg/kg) was “+2.8%”, the “Change in median weight” value ([1]; listed as BI 853520, 50 mg/kg) was 2.8% and the “Tolerability (in words)” value ([1]; BI 853520 50 mg/kg) was “well tolerated”. For the same molecule, the “TGI (tumor growth inhibition) span” value [2] was 0 to 107%, the TGI ([3]; BI853520 50 mg/Kg qd p.o., day 13) was 106% and the “Tumor shrinkage [x/y]” value ([3]; day 13, 50 mg/kg) was 6/7. The “Tumor shrinkage [x/y]” value ([3]; day 13, listed as BI 853520, 50 mg/kg) was 6 of 7, the “Inhibition of tumor growth (in words)” value ([3]; BI 853520 50 mg/kg) was “statistically significant inhibition of tumor growth” and the Median tumor volume ([3]; BI 853520 50 mg/kg per day, day 13 (start 175 mm^3)) was 126 mm^3.
